We go through six compounds from ChEMBL document CHEMBL1139487, “Discovery of corticotropin releasing factor 2 receptor selective sauvagine analogues for treatment of skeletal muscle atrophy” (J Med Chem, 2005).

The species entered for one assay is Mus musculus. The experiment in a line: Selectivity ratio of EC50s for mouse corticotropin releasing factor receptors 1 and 2.
For assay [1], the target named is Corticotropin-releasing factor receptor 2 (Mus musculus, UniProt Q60748). Put plainly: In vitro effective concentration for mouse corticotropin releasing factor 2 receptor.
The target of assay [2] is T1, Corticotropin-releasing factor receptor 1 (Mus musculus, UniProt P35347).
T1 sequence (P35347 whole entry): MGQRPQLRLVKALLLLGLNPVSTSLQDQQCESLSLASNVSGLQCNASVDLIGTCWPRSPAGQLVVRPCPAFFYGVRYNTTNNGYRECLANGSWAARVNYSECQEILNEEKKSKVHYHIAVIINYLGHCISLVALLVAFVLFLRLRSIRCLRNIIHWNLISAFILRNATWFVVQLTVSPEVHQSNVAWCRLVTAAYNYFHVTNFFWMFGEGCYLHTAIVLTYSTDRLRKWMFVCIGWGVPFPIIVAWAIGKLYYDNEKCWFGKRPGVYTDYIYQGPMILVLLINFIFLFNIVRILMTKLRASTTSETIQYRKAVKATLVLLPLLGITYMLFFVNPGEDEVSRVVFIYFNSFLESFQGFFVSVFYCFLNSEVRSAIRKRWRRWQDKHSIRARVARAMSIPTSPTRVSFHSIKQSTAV
Put plainly: In vitro effective concentration for mouse corticotropin releasing factor 1 receptor.

For assay [3], the target named is T2, Corticotropin-releasing factor receptor 1 (Mus musculus) (UniProt P35347).
T2 sequence (whole entry): T1 sequence (P35347 whole entry)
The experiment in a line: In vitro agonistic activity against mouse corticotropin releasing factor 1 receptor. It is filed as functional.

The target in assay [4] is Corticotropin-releasing factor receptor 2 (Mus musculus) (UniProt Q60748). The experiment in a line: In vitro agonistic activity against mouse corticotropin releasing factor 2 receptor. It is filed as functional.

The structures appear in SMILES notation.

Chain of Corticotropin-releasing factor receptor 2 (Mus musculus) (Q60748 whole entry): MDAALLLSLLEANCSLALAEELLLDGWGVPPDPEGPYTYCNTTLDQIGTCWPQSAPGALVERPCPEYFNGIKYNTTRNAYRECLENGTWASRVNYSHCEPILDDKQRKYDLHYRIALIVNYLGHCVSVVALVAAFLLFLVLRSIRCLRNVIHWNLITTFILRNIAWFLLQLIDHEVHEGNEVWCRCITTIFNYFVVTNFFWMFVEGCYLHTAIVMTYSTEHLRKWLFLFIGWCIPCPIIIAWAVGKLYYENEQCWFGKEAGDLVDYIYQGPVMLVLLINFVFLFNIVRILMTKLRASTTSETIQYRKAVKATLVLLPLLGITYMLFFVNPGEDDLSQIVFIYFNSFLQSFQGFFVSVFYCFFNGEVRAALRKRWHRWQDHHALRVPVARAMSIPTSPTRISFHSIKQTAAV
Chain of Corticotropin-releasing factor receptor 2 (Q60748 whole entry): as above

With `CC[C@H](C)[C@H](NC(=O)[C@@H](NC(=O)[C@H](CC(=O)O)NC(=O)[C@H](CC(C)C)NC(=O)[C@H](CC(C)C)NC(=O)[C@H](CC(C)C)NC(=O)[C@H](CCCN=C(N)N)NC(=O)[C@H](CC(N)=O)NC(=O)[C@H](CC(N)=O)NC(=O)[C@H](C)NC(=O)[C@H](C)NC(=O)[C@H](CCC(N)=O)NC(=O)[C@H](CCC(N)=O)NC(=O)[C@H](CCCCN)NC(=O)[C@H](CCC(=O)O)NC(=O)[C@H](CCCCN)NC(=O)[C@H](CCC(=O)O)NC(=O)[C@H](CCC(N)=O)NC(=O)[C@H](CCCCN)NC(=O)[C@H](CCC(=O)O)NC(=O)[C@@H](NC(=O)[C@H](CCC(=O)O)NC(=O)[C@@H](NC(=O)[C@H](CCSC)NC(=O)[C@H](CCCCN)NC(=O)[C@H](CCCN=C(N)N)NC(=O)[C@H](CC(C)C)NC(=O)[C@H](CC(C)C)NC(=O)[C@H](Cc1c[nH]c2ccccc12)NC(=O)[C@H](Cc1c[nH]cn1)NC(=O)[C@@H]1CCCN1C(=O)[C@H](CC(C)C)NC(=O)[C@H](CC(=O)O)NC(=O)[C@@H](NC(=O)[C@H](CO)NC(=O)[C@@H](NC(=O)[C@@H]1CCCN1C(=O)[C@@H]1CCCN1C(=O)CNC(=O)[C@@H]1CCC(=O)N1)[C@@H](C)CC)[C@@H](C)CC)[C@@H](C)CC)[C@@H](C)CC)[C@@H](C)O)C(=O)O`, the Selectivity in the assay listed under Mus musculus came to 16. Also, the EC50 came out at 25.1 nM in assay [1] and 408 nM in assay [2]. In addition, the Emax in assay [3] and in assay [4] was 100% each time.
Turning to `CC[C@H](C)[C@H](NC(=O)[C@@H](NC(=O)[C@H](CC(=O)O)NC(=O)[C@H](CC(C)C)NC(=O)[C@H](CC(C)C)NC(=O)[C@H](CC(C)C)NC(=O)[C@H](CCCN=C(N)N)NC(=O)[C@H](CC(N)=O)NC(=O)[C@H](CC(N)=O)NC(=O)[C@H](C)NC(=O)[C@H](C)NC(=O)[C@H](CCC(N)=O)NC(=O)[C@H](CCC(N)=O)NC(=O)[C@H](CCCCN)NC(=O)[C@H](CCC(=O)O)NC(=O)[C@H](CCCCN)NC(=O)[C@H](CCC(=O)O)NC(=O)[C@H](CCC(N)=O)NC(=O)[C@H](CCCCN)NC(=O)[C@H](CCC(=O)O)NC(=O)[C@@H](NC(=O)[C@H](CCC(=O)O)NC(=O)[C@@H](NC(=O)[C@H](CCSC)NC(=O)[C@H](CCCCN)NC(=O)[C@H](CCCN=C(N)N)NC(=O)[C@H](CC(C)C)NC(=O)[C@H](CC(C)C)NC(=O)[C@H](Cc1ccccc1)NC(=O)[C@H](Cc1ccccc1)NC(=O)[C@@H]1CCCN1C(=O)[C@H](CC(C)C)NC(=O)[C@H](CC(=O)O)NC(=O)[C@@H](NC(=O)[C@H](CO)NC(=O)[C@@H](NC(=O)[C@@H]1CCCN1C(=O)[C@@H]1CCCN1C(=O)CNC(=O)[C@@H]1CCC(=O)N1)[C@@H](C)CC)[C@@H](C)CC)[C@@H](C)CC)[C@@H](C)CC)[C@@H](C)O)C(=O)O`, the Selectivity in the assay filed under Mus musculus was 16. The values for the EC50 in assay [1] and in assay [2] were 3 nM and 48.1 nM, respectively. In addition, the Emax in assay [3] came to 81%; in assay [4] it was 92%.
In the case of `CC[C@H](C)[C@H](NC(=O)[C@@H](NC(=O)[C@H](CC(=O)O)NC(=O)[C@H](CC(C)C)NC(=O)[C@H](CC(C)C)NC(=O)[C@H](CC(C)C)NC(=O)[C@H](CCCN=C(N)N)NC(=O)[C@H](CC(N)=O)NC(=O)[C@H](CC(N)=O)NC(=O)[C@H](C)NC(=O)[C@H](C)NC(=O)[C@H](CCC(N)=O)NC(=O)[C@H](CCC(N)=O)NC(=O)[C@H](CCCCN)NC(=O)[C@H](CCC(=O)O)NC(=O)[C@H](CCCCN)NC(=O)[C@H](CCC(=O)O)NC(=O)[C@H](CCC(N)=O)NC(=O)[C@H](CCCCN)NC(=O)[C@H](CCC(=O)O)NC(=O)[C@@H](NC(=O)[C@H](CCC(=O)O)NC(=O)[C@@H](NC(=O)[C@H](CCSC)NC(=O)[C@H](CCCCN)NC(=O)[C@H](CCCN=C(N)N)NC(=O)[C@H](CC(C)C)NC(=O)[C@H](CC(C)C)NC(=O)[C@H](Cc1ccccc1)NC(=O)[C@H](CCC(N)=O)NC(=O)[C@@H]1CCCN1C(=O)[C@H](CC(C)C)NC(=O)[C@H](CC(=O)O)NC(=O)[C@@H](NC(=O)[C@H](CO)NC(=O)[C@@H](NC(=O)[C@@H]1CCCN1C(=O)[C@@H]1CCCN1C(=O)CNC(=O)[C@@H]1CCC(=O)N1)[C@@H](C)CC)[C@@H](C)CC)[C@@H](C)CC)[C@@H](C)CC)[C@@H](C)O)C(=O)O`, the Selectivity in the assay listed under Mus musculus came out at 28. In addition, the EC50 is 8.5 nM in assay [1] and 236 nM in assay [2]. The Emax in assay [3] and in assay [4] was 100% in each case.
As to `CC[C@H](C)[C@H](NC(=O)[C@@H](NC(=O)[C@H](CC(=O)O)NC(=O)[C@H](CC(C)C)NC(=O)[C@H](CC(C)C)NC(=O)[C@H](CC(C)C)NC(=O)[C@H](CCCN=C(N)N)NC(=O)[C@H](CC(N)=O)NC(=O)[C@H](CC(N)=O)NC(=O)[C@H](C)NC(=O)[C@H](C)NC(=O)[C@H](CCC(N)=O)NC(=O)[C@H](CCC(N)=O)NC(=O)[C@H](CCCCN)NC(=O)[C@H](CCC(=O)O)NC(=O)[C@H](CCCCN)NC(=O)[C@H](CCC(=O)O)NC(=O)[C@H](CCC(N)=O)NC(=O)[C@H](CCCCN)NC(=O)[C@H](CCC(=O)O)NC(=O)[C@@H](NC(=O)[C@H](CCC(=O)O)NC(=O)[C@@H](NC(=O)[C@H](CCSC)NC(=O)[C@H](CCCCN)NC(=O)[C@H](CCCN=C(N)N)NC(=O)[C@H](CC(C)C)NC(=O)[C@H](CC(C)C)NC(=O)[C@H](Cc1c[nH]c2ccccc12)NC(=O)[C@H](Cc1ccc(O)cc1)NC(=O)[C@@H]1CCCN1C(=O)[C@H](CC(C)C)NC(=O)[C@H](CC(=O)O)NC(=O)[C@@H](NC(=O)[C@H](CO)NC(=O)[C@@H](NC(=O)[C@@H]1CCCN1C(=O)[C@@H]1CCCN1C(=O)CNC(=O)[C@@H]1CCC(=O)N1)[C@@H](C)CC)[C@@H](C)CC)[C@@H](C)CC)[C@@H](C)CC)[C@@H](C)O)C(=O)O`, the Selectivity in the assay listed under Mus musculus came out at 47. Further, the EC50 in assay [1] stood at 4 nM; in assay [2], 187 nM. The Emax in assay [3] and in assay [4] was 100% throughout.
In the case of `CC[C@H](C)[C@H](NC(=O)[C@@H](NC(=O)[C@H](CC(=O)O)NC(=O)[C@H](CC(C)C)NC(=O)[C@H](CC(C)C)NC(=O)[C@H](CC(C)C)NC(=O)[C@H](CCCN=C(N)N)NC(=O)[C@H](CC(N)=O)NC(=O)[C@H](CC(N)=O)NC(=O)[C@H](C)NC(=O)[C@H](C)NC(=O)[C@H](CCC(N)=O)NC(=O)[C@H](CCC(N)=O)NC(=O)[C@H](CCCCN)NC(=O)[C@H](CCC(=O)O)NC(=O)[C@H](CCCCN)NC(=O)[C@H](CCC(=O)O)NC(=O)[C@H](CCC(N)=O)NC(=O)[C@H](CCCCN)NC(=O)[C@H](CCC(=O)O)NC(=O)[C@@H](NC(=O)[C@H](CCC(=O)O)NC(=O)[C@@H](NC(=O)[C@H](CCSC)NC(=O)[C@H](CCCCN)NC(=O)[C@H](CCCN=C(N)N)NC(=O)[C@H](CC(C)C)NC(=O)[C@H](CC(C)C)NC(=O)[C@H](Cc1c[nH]c2ccccc12)NC(=O)[C@@H](NC(=O)[C@@H]1CCCN1C(=O)[C@H](CC(C)C)NC(=O)[C@H](CC(=O)O)NC(=O)[C@@H](NC(=O)[C@H](CO)NC(=O)[C@@H](NC(=O)[C@@H]1CCCN1C(=O)[C@@H]1CCCN1C(=O)CNC(=O)[C@@H]1CCC(=O)N1)[C@@H](C)CC)[C@@H](C)CC)[C@@H](C)CC)[C@@H](C)CC)[C@@H](C)CC)[C@@H](C)O)C(=O)O`, the Selectivity in the assay listed under Mus musculus stood at 24. Moreover, the 50% effective concentration (EC50) in assay [1] stood at 23.4 nM; in assay [2], 562 nM. Also, the Emax in assay [3] turned out to be 99%; in assay [4], 94%.
For `CC[C@H](C)[C@H](NC(=O)[C@@H](NC(=O)[C@H](CC(=O)O)NC(=O)[C@H](CC(C)C)NC(=O)[C@H](CC(C)C)NC(=O)[C@H](CC(C)C)NC(=O)[C@H](CCCN=C(N)N)NC(=O)[C@H](CC(N)=O)NC(=O)[C@H](CC(N)=O)NC(=O)[C@H](C)NC(=O)[C@H](C)NC(=O)[C@H](CCC(N)=O)NC(=O)[C@H](CCC(N)=O)NC(=O)[C@H](CCCCN)NC(=O)[C@H](CCC(=O)O)NC(=O)[C@H](CCCCN)NC(=O)[C@H](CCC(=O)O)NC(=O)[C@H](CCC(N)=O)NC(=O)[C@H](CCCCN)NC(=O)[C@H](CCC(=O)O)NC(=O)[C@@H](NC(=O)[C@H](CCC(=O)O)NC(=O)[C@@H](NC(=O)[C@H](CCSC)NC(=O)[C@H](CCCCN)NC(=O)[C@H](CCCN=C(N)N)NC(=O)[C@H](CC(C)C)NC(=O)[C@H](CC(C)C)NC(=O)[C@@H](NC(=O)[C@@H](NC(=O)[C@@H]1CCCN1C(=O)[C@H](CC(C)C)NC(=O)[C@H](CC(=O)O)NC(=O)[C@@H](NC(=O)[C@H](CO)NC(=O)[C@@H](NC(=O)[C@@H]1CCCN1C(=O)[C@@H]1CCCN1C(=O)CNC(=O)[C@@H]1CCC(=O)N1)[C@@H](C)CC)[C@@H](C)CC)[C@@H](C)CC)[C@@H](C)CC)[C@@H](C)CC)[C@@H](C)CC)[C@@H](C)O)C(=O)O` the same measures were over 68, 14.8 nM, over 1000 nM, 4% and 73%.
